These results are taken from US20010055590A1, “Method for enhancing myoblast migration and invasion in the context of gene therapy” (priority 1999, published 2001).

Assay [1] has as its system human myoblasts. As to the kind of experiment: In vitro human myoblast invasion of Matrigel. Type of assay: cell-based. Conditions: 24 hour time point. On the procedure:
Mouse myoblasts were previously isolated from hind limb muscles of 4-6 week old severe combined immunodeficient (SCID) mice and clonally purified from contaminating fibroblasts (Yao et al. “Primary myoblast-mediated gene: transfer: persistent expression of human factor IX in mice” Gene Therapy 1:99-107, 1994). Myoblasts (approximately 1×10^6 cells) were plated on 6 cm tissue culture plates coated with 0.5% gelatin (Sigma, St. Louis, Mo.) and grown in growth medium consisting of Dulbecco's Modified Eagle Medium (DMEM) (Gibco BRL, Gaithersburg Md.) supplemented with 20% fetal bovine serum (FBS; Gibco) and 0.5% chick embryo extract (CEE; Gibco). All animal studies were carried out following the institutional guidelines for ethical animal use. Human myoblasts were isolated using trypsin digestion from abdominal wall or chest wall muscle biopsies, and surgery. […] Myoblast migration and invasion were examined using a commercially available in vitro cell migration and invasion assay kit (Biocoat, Becton Dickinson, Franklin Lakes, N.J.) as described by Albini et al. (A rapid in vitro assay for quantitating the invasive potential of tumor cells Cancer Res 47:3239-3245, 1987). […] The number of cells per field was counted in 10 randomly selected fields and averaged for each condition. […]

Assay [2] relates to MMP-2. Put plainly: Gelatin zymography of human myoblasts, MMP-2. Type of assay: cell-based. On the procedure: Gelatin zymography for assaying MMPs was carried out as previously described (Guerin and Holland “Synthesis and secretion of matrix-degrading metalloproteinases by human skeletal muscle satellite cells” Devel. Dynamics 202:91-99,1995) with minor modifications. Briefly, myoblasts were grown in 6 cm tissue culture plates to approximately 70% confluence, then rinsed three times with serumfree DMEM and incubated for 3 hours in DMEM containing 0.2% BSA to eliminate the effects of serum. Growth factors were added and cells were incubated for 24 hours. Culture medium was then collected, centrifuged to pellet detached cells, and concentrated ten-to twenty-fold using the Centricon-10 (Amicon, Beverly, Mass.) system. The protein concentration of the supernatants was determined using the Bio-Rad protein microassay system with BSA used as the standard. Samples were stored at −70° C. until use. For gelatin zymography, aliquots (10 μg as the total protein per sample) were electrophoresed at constant voltage on a 10% polyacrylamide gel containing 2 mg/ml gelatin. […] Proteinase activity was quantified by densitometric scanning of bands using a Bio-Rad Gel Doc 1000 video camera imaging system (Bio Rad, Hercules, Calif.). […]

On to human serum fibronectin, for which the “stimulation of human myoblast invasion of Matrigel over the BSA control” value in assay [1] came out at 2.3 fold. Also, in assay [2], the MMP-2 activation entry is “significant increase in MMP-2 activation”.
